Reference: US20150315154A1 (COUNCIL OF SCIENTIFIC & INDUSTRIAL RESEARCH, priority 2012, published 2015)

Columns and labels:
[1] = MTT cell viability assay, normal RAW 264.7 cells; assay type: cell-based; conditions: mouse, RAW 264.7 cells (non-cancerous mouse macrophage cells), after 24 and 48 h
[2] = system: CHO cells (Chinese hamstar ovarian cancer cells); test: MTT cell viability assay, CHO cells; assay type: cell-based, Chinese hamster; conditions: CHO cell line; after 24 h as well as after 48 h
[3] = system: A549 cells (human lung carcinoma cells); test: cells; conditions: A549, 24 h, read-out: cell viability
Description: (§3) The absorption obtained with reduced formazan with cells in the absence of lipids was taken to be 100. The assay was done after 24 (A) and 48 (B) hrs of the treatment.
(§4) The yellow tetrazolium salt (MTT) is reduced by mitochondrial dehydrogenase enzyme from metabolically active cells to form insoluble purple formazan crystals, which are solubilized by the addition of a mixture of DMSO & MeOH. The color can then be quantified by spectrophotometric method. For each cell type a linear relationship between cell number and absorbance is established, enabling accurate, straightforward quantification of changes in proliferation.
(§5) Cells were seeded at a density of 10000 (for B16F10, A549, MCF-7 & CHO) Or 15000 (for Raw264.7) per well in a 96-well plate for 18-24 h before the treatment. Cells were incubated with the liposomes of the presently described histidinylated cationic amphiphiles in the concentration range 40-16 μmol/mL in serum free medium. Immediately before the treatment, cells plated in the 96-well plate were washed with PBS (2×100 μL). After 4 h of incubation, the medium was replaced with fresh complete medium containing 10% FBS. The 10 μl of freshly prepared MTT solution in PBS (5 mg/mL) was added to each well of the plate after 24 or 48 h. The yellow tetrazolium salt (MTT) was reduced by mitochondrial dehydrogenase enzyme from metabolically active cells to form insoluble purple formazan crystals, which are solubilized by the addition of a mixture of DMSO & MeOH. The intensities of color were then quantified by spectrophotometric means. For each cell type a linear relationship between cell number and absorbance was established, enabling accurate, straightforward quantification of changes in proliferation.

[4] = system: mRNA of Bcl-2, Bcl-xL, BAX, Caspase 3, Caspase 9 in A549 cells; test: Semi-quantitative RT-PCR of apoptosis related genes in A549 cells; assay type: cell-based, human; conditions: 25 μM/mL, 24 h, vs untreated cells
Protocol: FIG. 11 Describes reverse transcription-PCR analysis of (BAX, BAK, Caspase 3 & 9) and anti-apoptotic genes (Bcl-2, Bcl-xL & NF-kB) in A549 cells after 24 h treatment with histidinylated lipids. […] After 4 h the medium was discarded and 3 mL of DMEM medium (Sigma) containing 10% fetal bovine serum was added to each well and left for 24 h. After 24 h, mRNAs were extracted from all the cells, cDNA was synthesized by Reverse transcription reaction and amplified by Polymerase Chain Reaction and finally resolved in 2% agarose gel.
Next, toward obtaining mechanistic insights into the origin of the observed in-vitro apoptosis inducing properties of the presently disclosed histidinylated lipids, we conducted conventional RT-PCR (Reversed transcriptase polymerase chain reaction) assays. Effect of the histidinylated lipids on the mRNA expression of various apoptosis related genes were analyzed by RT-PCR. The human lung carcinoma (A549) cells as a reference, were treated with the liposomal formulations of the histidinylated lipid containing DOPC & helper lipid Q16TG (25 μM/mL) and untreated cells were used as control. After 24 h, the total mRNA was isolated by conventional method using trizol. RT-PCR products were resolved on a 2% agarose gel electrophoresis and visualized with ethidium bromide. Our findings are consistent with the apoptosis inducing abilities of the presently disclosed histidinylated lipids being mediated via inhibition of transcription of the anti-apoptotic Bcl-2 & Bcl-xL genes & via activation of pro-apoptotic BAX & BAK signal transduction pathways. […] 18S m-RNA was used as loading control for all these lanes (FIG. 11).
Semi-quantitative RT-PCR analysis was performed to measure the changes in gene expression of treated cells in contrast to the untreated cells. A549 cells (ATCC) were seeded at a density of 10^6 cells/well in a 6 well plate usually 18-24 h before transfection. […] Cells were washed with phosphate-buffered saline (PBS), pH 7.4 (1×100 μL) and the 1 mL liposomal solutions were added to the cells. […] Then the cells were incubated at a humidified atmosphere containing 5% CO2 at 37° C. for 24 h. After 24 h of transfection, lipoplex treated and untreated cells were lysed directly in 6-well plates with 1 mL of TRIzol® reagent (Invitrogen) following removal of media and washing with PBS (1 mL). The cells were dissolved in TRI Reagent and cell lysates were pipetted several times to clear the haziness. Cell lysates were taken in 1.5 mL centrifuge tubes, after 10 min 0.2 mL chloroform was added. The samples were covered tightly and shaken vigorously for 15 sec, incubated for 10 min at room temperature and centrifuged at 14,000×g for 15 min at 4° C. Following centrifugation, the mixture separates into a lower red phenol-chloroform phase, interphase and the colourless upper aqueous phase. RNA remains exclusively in the aqueous phase whereas DNA and proteins are in the interphase and organic phase. Aqueous phase was transferred in to a fresh tube; 0.8 mL of isopropanol was added and mixed with pipette, kept for 15 min at −20° C. and centrifuged at 20,000 g for 20 min at 4° C. The supernatant was removed and the RNA pellet was washed with 500 μL cold 75% ethanol and centrifuged at 20,000 g for 10 min at 4° C. Ethanol was aspirated out and the pellet air-dried by inverting the tube. Finally the RNA pellet was dissolved in 15 μL of DEPC treated water, the ODs measured at 260 and 280 nm and the concentrations and purities of RNAs were calculated.

[5] = system: B16F10 cells (mouse melanoma); test: FITC-Annexin V / PI flow cytometry apoptosis assay, B16F10 cells; assay type: cell-based; conditions: 25 μM/mL, 1:1:1 lipid:DOPC:Q16TG, 24 h
Description: Significant increase of both FITC (fluorescence isothio cyanate) and PE (phycoerythrin) signal in histidinylated lipid treated B16F10 cells confirm apoptosis inducing property of these lipids after 24 hrs. In a flow cytometric quadrant (FITC vs PE), the lower left=(LL) panel represents normal cells and lower right (LR) panel represents early apoptotic cells which increase FITC signal only. Whereas upper right (UR) panel represents late apoptotic cells which increases both FITC and PE signaling and upper left (UL) panel represents necrotic cell only which increases PE signal only. […]
(§1) To quantify apoptotic cell death, we studied the in vitro apoptosis induction efficacy of the presently disclosed histidinylated cationic amphiphiles in mouse melanoma (B16F10) and human lung carcinoma (A549) as model malignant cells by flow cytometry using the FITC-Annexin V Apoptosis Detection Kit (Sigma). […]
(§2) B16F10 & A549 cells were treated with all four histidinylated lipids and liposomal formulation of hydrophobic anti-cancer drug dexamethasone containing DOPC and the helper lipid Q16TG (in 1:1:1 mole ratio of histidinylated lipid:DOPC:Q16TG, 25 μM/mL). […] After 24 h of treatment, cells were stained with annexin V and PI (according to manufacturer protocol, Sigma) and analysed in a flow cytometer (BD FacsCanto II). […]

[6] = system: A549 cells (human lung carcinoma); test: FITC-Annexin V / PI flow cytometry apoptosis assay, A549 cells; assay type: cell-based; conditions: 25 μM/mL, 1:1:1 lipid:DOPC:Q16TG, 24 h
Description: Significant increase of both FITC and PE signal in histidinylated lipid treated A549 cells confirm apoptosis inducibility property of these lipids after 24 hrs. In a flow cytometric quadrant (FITC vs PE), the lower left (LL) panel represents normal cells and lower right (LR) panel represents early apoptotic cells which increase FITC signal only. Whereas upper right (UR) panel represents late apoptotic cells which increases both FITC and PE signaling and upper left (UL) panel represents necrotic cell only which increases PE signal only. […]
as §1, §2

in vitro = conditions: African green monkey, COS-1 cells (non-cancerous)
Description: as §3, §4, §5

B16F10 melanoma tumor = test: Tumour growth inhibition assay, B16F10 melanoma in C57BL/6J mice; assay type: in vivo, mouse; conditions: liposomes 1:1:1 with DOPC:Q16TG injected at tumour site on day 14, 16, 18, 21, 24
[7] = system: non-cancerous healthy COS-1 cells; conditions: normal COS-1 cells; after 24 and 48 h
Description: as §3, §4, §5

CCCCCCCCCCCCCCCCOC(=O)C[C@H](NC(=O)[C@@H](N)Cc1c[nH]cn1)C(=O)OCCCCCCCCCCCCCCCC
viability [1]: > 80%
cytotoxicity [2]: most potent cytotoxicity
viability at 40 µM [3]: 20 to 40%
Bcl-2 mRNA level [4]: significantly decreased mRNA levels
Bcl-xL mRNA level [4]: significantly decreased mRNA levels
Caspase 3 expression [4]: up regulation
Caspase 9 expression [4]: up regulation
expression of pro-apoptotic gene BAX [4]: up regulation
apoptosis induction (annexin V / PI) [5]: enhanced apoptosis
apoptosis induction (annexin V / PI) [6]: enhanced apoptosis
viability (in vitro): ~70%
tumor growth inhibition (B16F10 melanoma tumor): highest tumor growth inhibition

CCCCCCCCCCCCCCCCCCOC(=O)C[C@H](NC(=O)[C@@H](N)Cc1c[nH]cn1)C(=O)OCCCCCCCCCCCCCCCCCC
viability [1]: > 80%
viability at 40 µM [3]: 20 to 40%
Bcl-2 mRNA level [4]: did not show significant down regulation
Bcl-xL mRNA level [4]: did not show significant down regulation
Caspase 3 expression [4]: up regulation
Caspase 9 expression [4]: up regulation
expression of pro-apoptotic gene BAX [4]: up regulation
viability (in vitro): ~70%
tumor growth inhibition (B16F10 melanoma tumor): moderate tumour growth inhibition

CCCCCCCCCCCCCCCCOC(=O)CC[C@H](NC(=O)[C@@H](N)Cc1c[nH]cn1)C(=O)OCCCCCCCCCCCCCCCC
viability [1]: > 80%
cytotoxicity [2]: most potent cytotoxicity
viability at 40 µM [3]: 20 to 40%
Bcl-2 mRNA level [4]: significantly decreased mRNA levels
Bcl-xL mRNA level [4]: significantly decreased mRNA levels
Caspase 3 expression [4]: up regulation
Caspase 9 expression [4]: up regulation
expression of pro-apoptotic gene BAX [4]: up regulation
apoptosis induction (annexin V / PI) [5]: enhanced apoptosis
apoptosis induction (annexin V / PI) [6]: enhanced apoptosis
viability (in vitro): ~70%
tumor growth inhibition (B16F10 melanoma tumor): highest tumor growth inhibition

CCCCCCCCCCCCCCCCCCOC(=O)CC[C@@H](NC(=O)[C@@H](N)Cc1ncc[nH]1)C(=O)OCCCCCCCCCCCCCCCCCC.Cl.Cl [HE-18, 2-((S)-2-ammonio-3-((R)-1,5-bis(octaadecyloxy)-1,5-dioxopentan-2-ylamino)-3-oxopropyl)-1H-imidazol-3-iumchloride]
cytotoxicity [2]: most potent cytotoxicity
Bcl-2 mRNA level [4]: did not show significant down regulation
Bcl-xL mRNA level [4]: did not show significant down regulation
Caspase 3 expression [4]: up regulation
Caspase 9 expression [4]: up regulation
expression of pro-apoptotic gene BAX [4]: up regulation
cell viability [7]: ~70%
tumor growth inhibition (B16F10 melanoma tumor): moderate tumour growth inhibition
